According to patent US7297551B2, “Recombinant proteins and peptides for endotoxin biosensors, endotoxin removal, and anti-microbial and anti-endotoxin therapeutics” (priority 1998, dated 2007):

Experiments:
[1] = target: T1, rFCEE (truncated C. rotundicauda Factor C, CrFC21EE, amino acids 1-766, from P. pastoris) (Carcinoscorpius rotundicauda, UniProt Q26422); assay: BIACORE X binding to immobilized lipid A; settings: Biomax-50 enriched, normalized with rFCSN
T1 construct: Pichia pastoris, Biomax-50 enriched
T1 sequence (Q26422 1-766): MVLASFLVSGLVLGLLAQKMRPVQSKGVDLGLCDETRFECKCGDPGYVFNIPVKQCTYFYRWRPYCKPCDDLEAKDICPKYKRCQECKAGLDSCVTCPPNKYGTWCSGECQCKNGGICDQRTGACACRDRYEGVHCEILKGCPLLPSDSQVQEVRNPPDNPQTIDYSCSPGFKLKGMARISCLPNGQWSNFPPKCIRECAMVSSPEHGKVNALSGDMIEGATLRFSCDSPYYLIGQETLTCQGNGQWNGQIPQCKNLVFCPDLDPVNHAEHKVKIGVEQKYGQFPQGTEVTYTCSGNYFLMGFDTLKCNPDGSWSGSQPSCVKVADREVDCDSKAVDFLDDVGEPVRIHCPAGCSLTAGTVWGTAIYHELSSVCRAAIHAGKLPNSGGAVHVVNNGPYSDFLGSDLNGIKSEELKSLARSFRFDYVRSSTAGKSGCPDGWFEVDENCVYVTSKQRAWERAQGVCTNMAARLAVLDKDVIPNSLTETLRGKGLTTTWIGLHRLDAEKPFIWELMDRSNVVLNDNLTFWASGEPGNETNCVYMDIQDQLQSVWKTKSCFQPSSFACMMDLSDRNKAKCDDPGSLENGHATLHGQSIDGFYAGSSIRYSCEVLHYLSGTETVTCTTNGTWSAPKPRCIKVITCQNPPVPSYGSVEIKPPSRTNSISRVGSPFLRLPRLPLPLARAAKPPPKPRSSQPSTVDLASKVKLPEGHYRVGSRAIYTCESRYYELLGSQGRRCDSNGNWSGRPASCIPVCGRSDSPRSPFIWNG
Description: (§1) The binding interactions between rFC and immobilized lipid A were monitored using the BIACORE X™ biosensor (Pharmacia Biotech). The BIACORE X™ sensor chip features a flat hydrophobic surface that allows the immobilization of ligand molecules. Thirty microliters of lipid A at 100 μg/ml were immobilized on each sensor chip to form a ligand surface. Biomax™-50 enriched samples of rFC, rFCEE and rFCSN, each at 1 mg/ml were injected at 10 μl/min for 3 min over the ligand surface. After each injection of the recombinant protein samples, the lipid A ligand surface was regenerated using 0.1 M NaOH. The ligand-binding was measured in relative response units (RU) for each sample, and calculated from the difference in RU at the baseline, viz., before injection of sample, and final experimental reading taken after sample injection and a 2-min wash. The percentage binding was thus determined.

[2] = target: T2, rFC (full-length recombinant C. rotundicauda Factor C, CrFC21, from P. pastoris) (Carcinoscorpius rotundicauda, UniProt Q26422); assay: BIACORE X binding to immobilized lipid A; settings: partially-pure rFC to lipid A 10:1 on a mass basis
T2 sequence (Q26422 1-1019): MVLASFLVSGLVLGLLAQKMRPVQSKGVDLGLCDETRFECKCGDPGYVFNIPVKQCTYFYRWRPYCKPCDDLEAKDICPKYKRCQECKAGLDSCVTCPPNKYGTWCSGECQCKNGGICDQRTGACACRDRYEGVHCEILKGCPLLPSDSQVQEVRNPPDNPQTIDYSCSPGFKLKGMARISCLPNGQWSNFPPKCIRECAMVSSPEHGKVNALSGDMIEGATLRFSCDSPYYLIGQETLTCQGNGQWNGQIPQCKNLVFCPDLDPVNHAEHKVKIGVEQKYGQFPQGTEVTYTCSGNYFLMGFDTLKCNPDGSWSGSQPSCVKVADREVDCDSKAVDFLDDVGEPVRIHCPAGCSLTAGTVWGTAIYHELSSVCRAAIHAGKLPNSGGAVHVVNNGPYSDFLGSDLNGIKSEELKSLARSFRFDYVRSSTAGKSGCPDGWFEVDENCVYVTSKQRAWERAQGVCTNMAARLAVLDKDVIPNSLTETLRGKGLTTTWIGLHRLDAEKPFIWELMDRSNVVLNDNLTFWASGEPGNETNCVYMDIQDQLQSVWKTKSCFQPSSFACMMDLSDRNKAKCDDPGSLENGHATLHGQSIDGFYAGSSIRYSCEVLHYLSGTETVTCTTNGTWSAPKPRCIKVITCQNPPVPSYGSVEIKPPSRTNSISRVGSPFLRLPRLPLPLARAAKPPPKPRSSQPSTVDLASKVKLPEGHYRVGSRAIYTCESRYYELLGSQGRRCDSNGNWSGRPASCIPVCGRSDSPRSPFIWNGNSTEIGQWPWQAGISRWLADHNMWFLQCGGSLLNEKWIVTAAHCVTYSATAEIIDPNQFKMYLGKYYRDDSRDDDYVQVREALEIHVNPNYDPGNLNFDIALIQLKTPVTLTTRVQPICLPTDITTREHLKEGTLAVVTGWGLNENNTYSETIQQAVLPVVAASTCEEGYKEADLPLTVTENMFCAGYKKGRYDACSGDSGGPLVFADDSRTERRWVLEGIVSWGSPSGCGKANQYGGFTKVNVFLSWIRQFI
Description: as §1

Question: lipid A was tested. Which “net response, lipid A bound” value [1] did it give?
Answer: 15%

Question: What about the “net response, lipid A bound” value [2] of the same substance?
Answer: approximately 30%
